Patent US20180214410A1, “Development of Dietary Therapy in Cancer” (Osaka University, priority 2015, published 2018)

Test system: pulmonary adenocarcinoma
Test: clinical course under other anticancer drugs in the lung cancer cases
Type: in vivo, human
Text: Each case is disclosed in detail below.

| SMILES | side effects (case 2, oral dosing from September to May 2014, no ketogenic diet) | adverse event due to erlotinib (case 4, August 2014, on the head) | primary tumor (primary lesion) under erlotinib administration (one patient who left the ketogenic diet after the 3 month evaluation) |
| --- | --- | --- | --- |
| COc1cc2ncnc(Nc3ccc(F)c(Cl)c3)c2cc1OCCCN1CCOCC1 [Iressa, gefitinib] | not found | – | – |
| C#Cc1cccc(Nc2ncnc3cc(OCCOC)c(OCCOC)cc23)c1 [erlotinib] | – | eczema | contraction |
